As a reminder, the IC50 is the concentration that inhibits the measured activity by half.

Data on 22 molecules can be found in ChEMBL document CHEMBL4813939, “Diterpenoids and Diacetylenes from the Roots of Aralia cordata with Inhibitory Effects on Nitric Oxide Production” (J Nat Prod, 2021).

The test system of data set [1] is RAW264.7. In words: Anti-inflammatory activity in mouse RAW264.7 cells assessed as inhibition of LPS-induced NO production preincubated for 1 hr followed by LPS stimulation and measured after 24 hrs by Griess reagent based assay. The class given is functional, cell-based. (Nitrite, measured by Griess reagent, commonly stands in for NO production.)
The test system of data set [2] is RAW264.7. In words: Cytotoxicity against mouse RAW264.7 cells assessed as reduction in cell viability by MTT assay. The class given is cell-based. For orientation: Tetrazolium assays rely on reduction of a dye to a coloured formazan, in cell work by metabolically active cells.

`C=CCCCCC/C=C\[C@H](O)C#CC#C[C@@H](O)CC` [DENDROARBOREOL A]: in the data set with RAW264.7 [1], the IC50 was determined as 40.5 µM. Moreover, the Activity result in the data set on RAW264.7 [2] is listed as “Non-Toxic”. On to `C=C[C@@]1(C)CC=C2[C@@H](CC[C@@H]3[C@](C)(C(=O)O)CCC[C@@]23C)C1=O`, for which the IC50 in the data set on RAW264.7 [1] is 10 µM. Besides, in the data set on RAW264.7 [2], the Activity result was “Non-Toxic”.

On to `C=C[C@]1(COC(=O)CC(C)C)C=C2CC[C@H]3[C@@](C)(CCC[C@@]3(C)C(=O)O)[C@@H]2CC1`, for which the IC50 in the data set on RAW264.7 [1] came to 10.6 µM. In addition, the Activity result in the data set on RAW264.7 [2] was “Non-Toxic”. For `C[C@@]12CCC[C@@](C)(C(=O)O)[C@H]1CC[C@]13C=C(C(=O)O)[C@H](CC[C@H]12)C3`, in that order: 51.1 µM and “Non-Toxic”. Regarding `CC(C)CC(=O)OC[C@H](O)[C@]1(C)C=C2CC[C@H]3[C@@](C)(CCC[C@]3(C)C(=O)O)[C@@H]2CC1`, in the data set on RAW264.7 [1], the IC50 stood at 35.1 µM. In addition, the Activity entry in the data set on RAW264.7 [2] is recorded as “Non-Toxic”. Regarding `C=C1[C@@H]2CC[C@H]3[C@]4(C)CCC[C@@](C)(C(=O)O)[C@H]4CC[C@]3(C2)[C@H]1O`, in the data set on RAW264.7 [1], the IC50 was determined as 25.4 µM. Moreover, the Activity result with RAW264.7 [2] is recorded as “Non-Toxic”.

Consider `C[C@@]12CCC[C@@](C)(C(=O)O)[C@H]1CC[C@]13C=C(C=O)[C@H](CC[C@H]12)C3`, for which, in the data set with RAW264.7 [1], the IC50 worked out at 14.2 µM. In addition, the Activity entry in the data set with RAW264.7 [2] is on record as “Non-Toxic”. Taken in the same sequence, the figures for `C=C[C@@]1(C)CC=C2C(CC[C@@H]3[C@](C)(CO)CCC[C@@]23C)C1` (stereo partly drawn) were 17.6 µM and “Non-Toxic”. Consider `CC(C)CC(=O)OC[C@@]1(O)C[C@@]23CC[C@H]4[C@@](C)(CCC[C@@]4(C)C(=O)O)[C@@H]2CC[C@@H]1C3`, for which the IC50 in the data set on RAW264.7 [1] worked out at 28.2 µM. In the data set on RAW264.7 [2], the Activity result is reported as “Non-Toxic”. Consider `C[C@@]12CCC[C@@](C)(C(=O)O)[C@H]1CC[C@]13C=C(CO)[C@H](CC[C@H]12)C3`, for which, in the data set with RAW264.7 [1], the IC50 stood at 47.8 µM. Also, in the data set with RAW264.7 [2], the Activity entry is on record as “Non-Toxic”. Regarding `C=CCCCCC/C=C\[C@@H](C#CC#C[C@@H](O)CC)OC(C)=O`, in the data set on RAW264.7 [1], the IC50 worked out at 2.3 µM. For the same molecule, in the data set on RAW264.7 [2], the Activity entry is recorded as “Non-Toxic”. For `C[C@@]12CCC[C@@](C)(C(=O)O)[C@H]1CCC1=C[C@@](C)([C@H]3CO3)CC[C@H]12`, in that order: 69.4 µM and “Non-Toxic”. In the case of `N=C(N)NN` [PIMAGEDINE], the IC50 in the data set with RAW264.7 [1] came to 18.7 µM. Turning to `C=C/C(C)=C\C[C@@H]1C(=C)CC[C@@H]2[C@](C)(CO)CCC[C@@]12C`, the IC50 with RAW264.7 [1] was 44 µM. For the same molecule, the Activity result in the data set on RAW264.7 [2] is “Non-Toxic”. For `C=C1C[C@@]23CC[C@@H]4[C@](C)(CO)CCC[C@@]4(C)[C@@H]2CC[C@@H]1C3`, in that order: 5.4 µM and “Non-Toxic”. Take `C=C[C@@]1(C)CCC2=C(C1)C(=O)C[C@@H]1[C@](C)(C(=O)O)CCC[C@@]21C`: the IC50 in the data set on RAW264.7 [1] was 14.9 µM. The Activity result in the data set on RAW264.7 [2] is “Non-Toxic”. In the case of `C=C[C@H](O)C#CC#C[C@@H](O)/C=C\CCCCCCC`, in the data set with RAW264.7 [1], the IC50 was 5.4 µM. The Activity entry in the data set on RAW264.7 [2] is listed as “Non-Toxic”. As to `C=C[C@@]1(C)CCC2=C(C1=O)[C@H](O)C[C@@H]1[C@](C)(C(=O)O)CCC[C@@]21C`, in the data set on RAW264.7 [1], the IC50 was 21.7 µM. Also, the Activity entry in the data set with RAW264.7 [2] is on record as “Non-Toxic”. Take `C=CCCCCC/C=C\[C@H](O)C#CC#CC(CC)OC(=O)/C=C/c1ccc(O)cc1` (stereo partly drawn): the IC50 with RAW264.7 [1] was 1.1 µM. Further, in the data set with RAW264.7 [2], the Activity entry is “Non-Toxic”.

Turning to `C=C[C@]1(C)C=C2CC[C@@H]3[C@](C)(CO)CCC[C@@]3(C)[C@@H]2CC1`, the IC50 in the data set on RAW264.7 [1] is 10.2 µM. Moreover, the Activity result in the data set with RAW264.7 [2] was “Non-Toxic”.

`C=C[C@]1(C)C=C2C(=O)C[C@H]3[C@@](C)(CCC[C@@]3(C)C(=O)O)[C@@H]2CC1`: the half-maximal inhibitory concentration (IC50) in the data set with RAW264.7 [1] amounted to 66.8 µM. The Activity result with RAW264.7 [2] was “Non-Toxic”. With `C=C[C@@]1(C)CCC2=C(CC[C@@H]3[C@](C)(C(=O)O)CCC[C@@]23C)C1=O`, the IC50 with RAW264.7 [1] amounted to 11.5 µM. Also, in the data set with RAW264.7 [2], the Activity result is recorded as “Non-Toxic”.
